Source: US6730680B2 (priority 1999, dated 2004)
Converted amounts (≈) assume the structure as drawn.

Columns and labels:
Pyricularia oryzae = experiment: microbe, parasite or virus in culture; format: cell-based; conditions: read-out: MIC (Minimum Inhibitory Concentration)

Compound: CC(C)N(C)c1c(-c2c(F)cc(F)cc2F)c(Cl)nc2ccnn12
- melting point: 109 °C

Compound: CC(C)Nc1c(-c2c(F)cc(F)cc2F)c(Cl)nc2ccnn12
- melting point: 143 °C

Compound: Fc1cc(F)c(-c2c(Cl)nc3ccnn3c2NCC(F)(F)F)c(F)c1 [Example I-7, [5-chloro-6-(2,4,6-trifluoro-phenyl)-pyrazolo[1,5-α]pyrimidin-7-yl]-(2,2,2-trifluoro-ethyl)-amine]
- MIC (Pyricularia oryzae): 0.78 µg/mL (≈ 2.05 µM)

Compound: CCN(CC)c1c(-c2c(F)cc(F)cc2F)c(Cl)nc2ccnn12
- melting point: 90 °C

Compound: Fc1cc(F)c(-c2c(Cl)nc3ccnn3c2NC2CCCC2)c(F)c1
- melting point: 128 °C
